Experiments:
[1] = tested on: Mortalin/GRP75 and other cellular factors of Jurkat cell lysates; test: FLAG immuno-precipitation pulldown of cellular factors, MS and Western blot; type: binding; conditions: FLAG IP on Jurkat cell lysates
Procedure: SMRwt vs. SMRmt peptides were used in conjunction with FLAG immuno-precipitation on Jurkat cell lysates to pulldown cellular factors that interacted with the SMRwt antagonist, but not with the SMRmt negative control. The cellular factor(s) that interact with the antagonist are analyzed by the FLAG IP assay. Briefly, cell lysates are combined with AminoLink Plus resin coupled to FLAG-tagged SMR peptides. SMR-specific cellular proteins (ROY) bind to the SMR peptides on the resin. Non-specific contaminants (G BIV) are washed off of the resin and removed by centrifugation. The SMR-specific cell proteins (ROY) are eluted and collected. Some strongly bound contaminants (V) are also eluted and collected.
Mortalin interacts with p53, and is shown to be involved in apoptosis and vesicle transport (MAC complex). It is also found in microvesicles released by tumor cells.
The gel was also Western probed with α-Mortalin antibody. A protein with a molecular weight of ˜75 kDa was detected in the lanes containing the cell lysate, the antagonist eluate, and the antagonist affinity resin (FIG. 13, panel B, Lanes 1, 3, and 5), but not in the negative control or negative control peptide eluate's lanes (FIG. 13, panel B, Lanes 2 and 4).

[2] = tested on: R7; Magi/CXCR4 cells; test: Magi assay of viral infectivity, supernatants of THP-1 monocytes; type: cell-based, HIV; conditions: supernatant from transfected THP-1 monocytes
Procedure: Magi/CXCR4 cells were exposed to 48 hour conditioned supernatants from Jurkat cells, HEK293 cells, THP-1 monocytes, or U937 monocytes transfected with either R7 viral DNA/SMRwt peptide or R7 viral DNA/SMRmt peptide. These cells were then fixed and stained with X-Gal. […] Cells productively infected with R7 are easily visualized under light microscopy by their blue nuclear staining. Magnification ×20. […] This is indicative of virus in the conditioned supernatant from the R7/negative control peptide treated cells and no virus in conditioned supernatant from the R7/antagonist treated cells.
These Magi cultures were quantitated for blue staining cells. The data was plotted as a function of time post-transfection. […] This is possibly due to antagonism of trafficking of viral component(s) to the cytoplasmic membrane. Ultimately this would shutdown the HIV infection and block progression to AIDS.

[3] = tested on: HIV-1wtNef-GFP vesicle secretion in Jurkat cells; test: Nef-GFP co-transfection secretion assay; type: cell-based; conditions: 500 ng HIV-1wtNef-GFP + 7.8-500 ng peptide, Chariot
Procedure: In another experiment, Jurkat cells were co-transfected with 500 ng HIV-1wtNef-GFP and 7.8-500 ng of SMRwt peptide by Chariot. As shown in FIG. 3A the SMRwt peptide inhibits the vesicle secretion in Jurkat cells.

[4] = tested on: R7 in Jurkat cells; test: Confocal microscopy of p24 in R7 transfected cells; type: cell-based, HIV; conditions: day 3, 6, 10, 14, 17 after transfection with R7, accumulation in cytoplasm day 3, 6, 10
Source text: FIG. 4A is a composite of diagrams showing ELISA analysis of p24 concentration in Jurkat cells (panel A), HEK293 cells (panel B), THP-1 Monocytes (panel C) and U937 monocytes (panel D). FIG. 4B is a composite of confocal microscope pictures showing blocking of p24 release in Jurkat cells by SMRwt peptide (panel A) but not by SMRrmt peptide (panel B). FIG. 4C is a composite of confocal and electron microscope pictures showing viral particle distribution in Jurkat cells at day 6 post-transfection with R7 and SMRwt peptide (panel A-1) or with R7 and SMRmt peptide (panel B-1). FIG. 4D is a composite of confocal and electron microscope pictures showing viral particle distribution in Jurkat cells at day 14 post-transfection with R7 and SMRwt peptide (panel A-2) or with R7 and SMRmt peptide (panel B-2), FIG. 4E is a composite of confocal and electron microscope pictures showing viral particle distribution in subcellular structures in Jurkat cells at day 6 post-transfection with R7 and SMRwt peptide (panel A-1) or with R7 and SMRmt peptide (panel B-1) in Jurkat cells and at day 14 post-transfection with R7 and SMRwt peptide (panel A-2) or with R7 and SMRmt peptide (panel B-2) in Jurkat cells.
The effect of SMRwt, however, seems to be temporary. It appears that Jurkat and HEK cells can degrade the peptide over time, while U937 monocytes cannot degrade the peptide. […]

H-VGFPVAAVGFPVDYKDDDDK-OH [SMRwt]
~75 kDa protein in peptide eluate, Western probed with α-Mortalin antibody [1]: detected
cellular proteins in bands of the SMRwt lane but not the SMRmt lane (MALDI TOF MS/MS, LC/MS/MS) ([1]; SDS PAGE): Mortalin/GRP75; Myosin 10; Vimentin; GRP78; HSC70
numbers of infected Magi cells as a function of time post-transfection [2]: significantly reduced
vesicle secretion (Nef-GFP) [3]: inhibits the vesicle secretion in Jurkat cells in a dose-dependent manner
p24 release (confocal microscopy) [4]: blockage of p24 release
